Source: the NIST ThermoML archive (doi:10.1021/je700350b)
Numbers after ± are expanded uncertainties.

Assay: xn = mol fraction of the nth substance listed
Conditions: for surface tension liquid-gas: Ring tensiometer; for binary diffusion coefficient: 101 kPa, Taylor dispersion method; for binary diffusion coefficient / viscosity: Liquid; for viscosity: 101.33 kPa

CCN(CC)CCO [(diethylamino)ethanol] + O
Conditions | binary diffusion coefficient [m2/s] | surface tension liquid-gas [mN/m] | viscosity [mPa·s]
283.15 K, x1 = 0.00104 | – | 62.91 ± 2 | –
283.15 K, x1 = 0.00111 | – | 62.83 ± 2 | –
283.15 K, x1 = 0.0013 | – | 62.32 ± 2 | –
283.15 K, x1 = 0.00336 | – | 55.32 ± 1.8 | –
283.15 K, x1 = 0.00503 | – | 54.03 ± 1.7 | –
283.15 K, x1 = 0.00679 | – | 50.98 ± 1.6 | –
283.15 K, x1 = 0.02372 | – | 43.65 ± 1.4 | –
283.15 K, x1 = 0.03998 | – | 39.05 ± 1.2 | –
283.15 K, x1 = 0.06011 | – | 37.17 ± 1.2 | –
283.15 K, x1 = 0.07276 | – | 36.26 ± 1.1 | –
283.15 K, x1 = 0.1253 | – | 34.78 ± 1.1 | –
283.15 K, x1 = 0.1749 | – | 33.38 ± 1.1 | –
283.15 K, x1 = 0.2503 | – | 32.74 ± 1 | –
283.15 K, x1 = 0.3515 | – | 31.85 ± 1 | –
283.15 K, x1 = 0.4018 | – | 31.32 ± 0.98 | –
283.15 K, x1 = 0.5038 | – | 31.02 ± 0.97 | –
283.15 K, x1 = 0.608 | – | 30.63 ± 0.96 | –
283.15 K, x1 = 0.712 | – | 30.36 ± 0.95 | –
283.15 K, x1 = 0.7503 | – | 30.08 ± 0.94 | –
283.15 K, x1 = 0.8542 | – | 29.69 ± 0.93 | –
283.15 K, x1 = 1 | – | 28.79 ± 0.9 | –
288.15 K, x1 = 0.00104 | – | 62.06 ± 1.9 | –
288.15 K, x1 = 0.00111 | – | 61.98 ± 1.9 | –
288.15 K, x1 = 0.0013 | – | 61.47 ± 1.9 | –
288.15 K, x1 = 0.00336 | – | 54.27 ± 1.7 | –
288.15 K, x1 = 0.00503 | – | 53.11 ± 1.6 | –
288.15 K, x1 = 0.00679 | – | 49.93 ± 1.6 | –
288.15 K, x1 = 0.02372 | – | 42.61 ± 1.3 | –
288.15 K, x1 = 0.03998 | – | 38.43 ± 1.2 | –
288.15 K, x1 = 0.06011 | – | 36.56 ± 1.1 | –
288.15 K, x1 = 0.07276 | – | 35.84 ± 1.1 | –
288.15 K, x1 = 0.1253 | – | 34.38 ± 1.1 | –
288.15 K, x1 = 0.1749 | – | 32.58 ± 1 | –
288.15 K, x1 = 0.2503 | – | 32.22 ± 1 | –
288.15 K, x1 = 0.3515 | – | 31.24 ± 0.98 | –
288.15 K, x1 = 0.4018 | – | 30.72 ± 0.96 | –
288.15 K, x1 = 0.5038 | – | 30.62 ± 0.96 | –
288.15 K, x1 = 0.608 | – | 30.23 ± 0.95 | –
288.15 K, x1 = 0.712 | – | 29.96 ± 0.94 | –
288.15 K, x1 = 0.7503 | – | 29.69 ± 0.93 | –
288.15 K, x1 = 0.8542 | – | 29.3 ± 0.92 | –
288.15 K, x1 = 1 | – | 28.39 ± 0.89 | –
293.15 K, x1 = 0.00104 | – | 61.43 ± 1.9 | –
293.15 K, x1 = 0.00111 | – | 61.34 ± 1.9 | –
293.15 K, x1 = 0.0013 | – | 60.62 ± 1.9 | –
293.15 K, x1 = 0.00336 | – | 53.43 ± 1.6 | –
293.15 K, x1 = 0.00503 | – | 52.35 ± 1.6 | –
293.15 K, x1 = 0.00679 | – | 48.58 ± 1.5 | –
293.15 K, x1 = 0.02372 | – | 41.89 ± 1.3 | –
293.15 K, x1 = 0.03998 | – | 37.6 ± 1.2 | –
293.15 K, x1 = 0.06011 | – | 36 ± 1.1 | –
293.15 K, x1 = 0.07276 | – | 35.06 ± 1.1 | –
293.15 K, x1 = 0.1253 | – | 33.88 ± 1.1 | –
293.15 K, x1 = 0.1749 | – | 32.18 ± 1 | –
293.15 K, x1 = 0.2503 | – | 31.82 ± 0.99 | –
293.15 K, x1 = 0.3515 | – | 30.73 ± 0.96 | –
293.15 K, x1 = 0.4018 | – | 30.23 ± 0.95 | –
293.15 K, x1 = 0.5038 | – | 30.22 ± 0.95 | –
293.15 K, x1 = 0.608 | – | 29.73 ± 0.93 | –
293.15 K, x1 = 0.712 | – | 29.66 ± 0.93 | –
293.15 K, x1 = 0.7503 | – | 29.29 ± 0.92 | –
293.15 K, x1 = 0.8542 | – | 28.8 ± 0.9 | –
293.15 K, x1 = 1 | – | 27.99 ± 0.88 | –
298.15 K, x1 = 0.00104 | – | 60.8 ± 1.9 | –
298.15 K, x1 = 0.00111 | – | 60.7 ± 1.9 | –
298.15 K, x1 = 0.0013 | – | 59.88 ± 1.9 | –
298.15 K, x1 = 0.00336 | – | 52.59 ± 1.6 | –
298.15 K, x1 = 0.00427 | 6.17e-10 | – | –
298.15 K, x1 = 0.00503 | – | 51.41 ± 1.6 | –
298.15 K, x1 = 0.00679 | – | 47.43 ± 1.5 | –
298.15 K, x1 = 0.01005 | – | – | 1.201 ± 0.019
298.15 K, x1 = 0.01425 | 4.95e-10 | – | –
298.15 K, x1 = 0.02016 | – | – | 1.536 ± 0.024
298.15 K, x1 = 0.02372 | – | 40.85 ± 1.3 | –
298.15 K, x1 = 0.03 | – | – | 1.949 ± 0.03
298.15 K, x1 = 0.03523 | 2.95e-10 | – | –
298.15 K, x1 = 0.03998 | – | 36.88 ± 1.1 | –
298.15 K, x1 = 0.04005 | – | – | 2.421 ± 0.037
298.15 K, x1 = 0.05087 | 2.23e-10 | – | –
298.15 K, x1 = 0.05118 | 2.22e-10 | – | –
298.15 K, x1 = 0.05946 | – | – | 3.473 ± 0.054
298.15 K, x1 = 0.06011 | – | 35.23 ± 1.1 | –
298.15 K, x1 = 0.06152 | – | – | 3.51 ± 0.054
298.15 K, x1 = 0.07013 | 1.58e-10 | – | –
298.15 K, x1 = 0.07026 | – | – | 4.128 ± 0.064
298.15 K, x1 = 0.07276 | – | 34.59 ± 1.1 | –
298.15 K, x1 = 0.08762 | – | – | 5.181 ± 0.081
298.15 K, x1 = 0.09008 | – | – | 5.347 ± 0.084
298.15 K, x1 = 0.09711 | 1.32e-10 | – | –
298.15 K, x1 = 0.1004 | 1.26e-10 | – | –
298.15 K, x1 = 0.11 | – | – | 6.615 ± 0.1
298.15 K, x1 = 0.12 | – | – | 7.243 ± 0.11
298.15 K, x1 = 0.1253 | – | 33.18 ± 1 | –
298.15 K, x1 = 0.1301 | – | – | 7.863 ± 0.12
298.15 K, x1 = 0.1401 | – | – | 8.511 ± 0.14
298.15 K, x1 = 0.1467 | 1.07e-10 | – | –
298.15 K, x1 = 0.1749 | – | 31.58 ± 0.99 | –
298.15 K, x1 = 0.2503 | – | 31.21 ± 0.98 | –
298.15 K, x1 = 0.3515 | – | 30.22 ± 0.95 | –
298.15 K, x1 = 0.4018 | – | 29.73 ± 0.93 | –
298.15 K, x1 = 0.5038 | – | 29.72 ± 0.93 | –
298.15 K, x1 = 0.608 | – | 29.23 ± 0.92 | –
298.15 K, x1 = 0.712 | – | 29.15 ± 0.91 | –
298.15 K, x1 = 0.7503 | – | 28.8 ± 0.9 | –
298.15 K, x1 = 0.8542 | – | 28.41 ± 0.89 | –
298.15 K, x1 = 1 | – | 27.6 ± 0.87 | –
